# Experiments:
# [1] = Drug level in NADPH supplemented rabbit liver S9 fraction treated with 50 uM oxymetazoline assessed as compound formation after 1 hr by LC-MS/MS method; format: ADME, subcellular, Oryctolagus cuniculus; details: s9, 1 h
# [2] = Retention time of the compound at 50 uM by LC-MS/MS method; format: physicochemical
# [3] = Drug level in NADPH supplemented human liver S9 fraction treated with 50 uM oxymetazoline assessed as compound-glutathione conjugate formation in presence of glutathione by LC-MS/MS method; format: ADME, subcellular
# Liver microsome [4] = test: Drug level in NADPH supplemented human liver microsomes fraction treated with 50 uM oxymetazoline assessed as compound formation after 1 hr by LC-MS/MS method; format: ADME
# [5] = Drug level in NADPH supplemented rat liver S9 fraction treated with 50 uM oxymetazoline assessed as compound-glutathione conjugate formation in presence of glutathione by LC-MS/MS method; format: ADME, subcellular
# [6] = Drug level in NADPH supplemented rabbit liver microsomes fraction treated with 50 uM oxymetazoline assessed as compound formation after 1 hr by LC-MS/MS method; format: ADME, Oryctolagus cuniculus
# Cytochrome P450 2C19 [7] = target: T1, Cytochrome P450 2C19 (Homo sapiens, UniProt P33261); test: Activity of human recombinant CYP2C19 assessed as compound formation from 50 uM oxymetazoline in presence of NADPH by LC-MS/MS method; format: ADME; details: recombinant enzyme
# T1 sequence (P33261 whole entry): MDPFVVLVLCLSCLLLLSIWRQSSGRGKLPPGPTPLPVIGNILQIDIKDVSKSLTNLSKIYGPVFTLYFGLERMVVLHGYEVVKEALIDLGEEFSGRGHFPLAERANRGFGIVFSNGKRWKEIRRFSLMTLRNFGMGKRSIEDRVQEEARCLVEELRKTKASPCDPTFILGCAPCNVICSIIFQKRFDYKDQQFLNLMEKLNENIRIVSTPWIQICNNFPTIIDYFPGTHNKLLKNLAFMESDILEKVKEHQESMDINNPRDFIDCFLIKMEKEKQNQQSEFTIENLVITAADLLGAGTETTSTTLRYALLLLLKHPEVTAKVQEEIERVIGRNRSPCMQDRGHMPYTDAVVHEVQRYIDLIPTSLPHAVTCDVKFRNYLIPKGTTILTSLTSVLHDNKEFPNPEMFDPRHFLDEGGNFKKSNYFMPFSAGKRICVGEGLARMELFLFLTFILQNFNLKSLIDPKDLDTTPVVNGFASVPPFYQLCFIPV
# Liver [8] = test: Drug level in NADPH supplemented rat liver S9 fraction treated with 50 uM oxymetazoline assessed as compound formation after 1 hr by LC-MS/MS method; format: ADME, subcellular; details: s9, 1 h
# Liver microsome [9] = test: Drug level in NADPH supplemented rat liver microsomes fraction treated with 50 uM oxymetazoline assessed as compound formation after 1 hr by LC-MS/MS method; format: ADME
# [10] = Drug level in NADPH supplemented rabbit liver S9 fraction treated with 50 uM oxymetazoline assessed as compound-glutathione conjugate formation in presence of glutathione by LC-MS/MS method; format: ADME, subcellular, Oryctolagus cuniculus
# Liver [11] = test: Drug level in NADPH supplemented human liver S9 fraction treated with 50 uM oxymetazoline assessed as compound formation after 1 hr by LC-MS/MS method; format: ADME, subcellular; details: s9, 1 h
# [12] = Drug level in NADPH supplemented rabbit liver S9 fraction treated with 50 uM oxymetazoline assessed as compound-N-acetyl cysteine conjugate formation in presence of N-acetyl cysteine by LC-MS/MS method; format: ADME, subcellular, Oryctolagus cuniculus
# Cytochrome P450 2C19 [13] = target: T1, Cytochrome P450 2C19; test: Activity of human recombinant CYP2C19 assessed as compound formation from 50 uM oxymetazoline in presence of NADPH and glutathione by LC-MS/MS method; format: ADME; details: recombinant enzyme
SMILES,Drug metabolism [1],Retention_time [2],Drug metabolism [3],Drug metabolism (Liver microsome [4]),Drug metabolism [5],Drug metabolism [6],Drug metabolism (Cytochrome P450 2C19 [7]),Drug metabolism (Liver [8]),Drug metabolism (Liver microsome [9]),Drug metabolism [10],Drug metabolism (Liver [11]),Drug metabolism (Cytochrome P450 2C19 [13]),Drug metabolism [12]
Cc1c(O)c(C(C)(C)CO)cc(CSC[C@H](NC(=O)CC[C@H](N)C(=O)O)C(=O)NCC(=O)O)c1CC1=NCCN1,metabolite_detected,3.86 min,–,–,–,–,–,–,–,–,–,–,–
Cc1c(O)c(C(C)(C)C)cc(CSC[C@H](N)C(=O)O)c1Cc1ncc[nH]1,metabolite_detected,3.48 min,–,–,–,–,–,–,–,–,–,–,–
Cc1cc(C(C)(C)C)c(O)c(C)c1Cc1ncc[nH]1,metabolite_detected,12.36 min,–,metabolite_detected,–,metabolite_detected,metabolite_detected,metabolite_detected,metabolite_detected,–,metabolite_detected,–,metabolite_detected
CC(=O)N[C@@H](CSCc1cc(C(C)(C)C)c(O)c(C)c1CC1=NCCN1)C(=O)O,–,–,–,–,–,–,–,–,–,–,–,–,metabolite_detected
Cc1c(O)c(C(C)(C)CO)cc(CSC[C@H](NC(=O)CC[C@H](N)C(=O)O)C(=O)NCC(=O)O)c1Cc1ncc[nH]1,metabolite_detected,6.34 min,–,–,–,–,–,–,–,–,–,–,–
Cc1c(O)c(C(C)(C)C)cc(CSC[C@H](NC(=O)CC[C@H](N)C(=O)O)C(=O)NCC(=O)O)c1Cc1ncc[nH]1,metabolite_detected,4.65 min,metabolite_detected,–,metabolite_detected,–,–,metabolite_detected,–,metabolite_detected,metabolite_detected,metabolite_detected,–
Cc1cc(C(C)(C)CO)c(O)c(C)c1Cc1ncc[nH]1,metabolite_detected,5.64 min,metabolite_detected,metabolite_detected,metabolite_detected,metabolite_detected,metabolite_detected,metabolite_detected,metabolite_detected,metabolite_detected,metabolite_detected,–,–

# Now from value to compound, other results behind:
Drug metabolism [1],Retention_time [2],Drug metabolism [3],Drug metabolism (Liver microsome [4]),Drug metabolism [5],Drug metabolism [6],Drug metabolism (Cytochrome P450 2C19 [7]),Drug metabolism (Liver [8]),Drug metabolism (Liver microsome [9]),Drug metabolism [10],Drug metabolism (Liver [11]),Drug metabolism (Cytochrome P450 2C19 [13]),SMILES,Drug metabolism [12]
metabolite_detected,4.95 min,metabolite_detected,metabolite_detected,metabolite_detected,metabolite_detected,metabolite_detected,metabolite_detected,metabolite_detected,metabolite_detected,metabolite_detected,–,Cc1cc(C(C)(C)CO)c(O)c(C)c1CC1=NCCN1,–
metabolite_detected,4.22 min,metabolite_detected,–,metabolite_detected,–,–,metabolite_detected,–,metabolite_detected,metabolite_detected,metabolite_detected,Cc1c(O)c(C(C)(C)C)cc(CSC[C@H](NC(=O)CC[C@H](N)C(=O)O)C(=O)NCC(=O)O)c1CC1=NCCN1,–
metabolite_detected,3.17 min,–,–,–,–,–,–,–,–,metabolite_detected,–,Cc1c(O)c(C(C)(C)C)cc(CSC[C@H](N)C(=O)O)c1CC1=NCCN1,–

# Reference: ChEMBL document CHEMBL3525902, “In vitro metabolism of oxymetazoline: evidence for bioactivation to a reactive metabolite” (Drug Metab Dispos, 2011)
